{
  "source": "patent US20050106276A1",
  "about": "“Pharmaceutical composition made from Chinese traditional medecine and method of producing thereof” (Jiangsu Kanion Pharmaceutial Co. Ltd., priority 2001, published 2005)",
  "key": {"[1]": {"system": "experimental rats with hyperglycaemia", "experiment": "blood glucose value of rats with hyperglycaemia lead by alloxan", "format": "in vivo, rat", "details": "alloxan rats serum", "experimental": "160 male rats, weighting 200˜250 g, were given alloxan on the dosage of 200 mg/kg by intraperitoneal injection. taking blood from eye sockets of the survivals 72 hours later, using evaluate kit evaluated serum glucose, select 40 rats with hyperglycosemia whose serum glucose value is 20˜25 mmol/L, Which were randomly divided into 4 groups: Model group, Positive medicine Phenformin group, High and low dose of invented capsule group. All rats were intragastric administration 1 time each day in 10 days; Take another 10 mice as normal control group. All mice were fasting diet 12 hours after last administration, then taking blood from eye sockets, separating blood serum, using evaluate kit evaluated serum glucose value with Glucose enzymic method, then using t-value method to compare the significance with model group."}, "[2]": {"system": "experimental mice with hyperglycaemia", "experiment": "blood glucose value of mice with hyperglycaemia lead by Streptozocin", "format": "in vivo, mouse", "details": "Streptozocin mice serum", "experimental": "100 male mice, weighting 25˜30 g, were given Streptozocin on the dosage of 180 mg/kg by intraperitoneal injection. taking blood from eye sockets of the survivals 72 hours later, using evaluate kit evaluated serum glucose, select 40 mice with hyperglycosemia whose serum glucose value is 18˜33 mmol/L, Which were randomly divided into 4 groups: Model group, Positive medicine Phenformin group, High and low dose of invented capsule group. All mice were intragastric administration 1 time each day in 10 days; Take another 10 mice as normal control group. All mice were fasting diet 12 hours after last administration, then taking blood from eye sockets, separating blood serum, using evaluate kit evaluated serum glucose value with Glucose enzymic method, then using t-value method to compare the significance with model group."}, "[3]": {"details": "0.1 g/kg intragastric daily 10 days"}},
  "note": "Counter-ions that a name gives are not always drawn.",
  "data": [
    {"smiles": "[H]/N=C(/N)N/C(=N/[H])NCCc1ccccc1", "note": "[Phenformin, Phenformin Hydrochloride]", "values": [
      {"measurement": "GLU After administration", "setting": "[1]; [3]", "value": "14.52 ± 4.99", "unit": "mmol/L"},
      {"measurement": "GLU Before administration", "setting": "[1]; baseline of 0.1 g/kg group", "value": "22.72 ± 1.53", "unit": "mmol/L"},
      {"measurement": "GLU After administration", "setting": "[2]; [3]", "value": "12.51 ± 6.93", "unit": "mmol/L"},
      {"measurement": "GLU Before administration", "setting": "[2]; baseline of 0.1 g/kg group", "value": "25.43 ± 3.93", "unit": "mmol/L"}
    ]}
  ]
}
